# Laboratory results taken from US20060287383A1, “Substance exhibiting antidepressant property” (priority 2003, published 2006).
# Structures can show the parent of a compound that is named as a salt.
# Tests used:
# white outbred male rats [1] = experiment: Porsolt method of behavioral despair (helplessness); format: in vivo
# Source text: The Porsolt method of behavioral despair (helplessness) (Porsolt R. D., Anton G., Blavet N. et al. Behavioral despair in rats: a new model sensitive to antidepressant treatment//Europ. J. Pharmacol. 1978—v. 47.—p. 379-391) is the basic model for assessing antidepressants (Andreeva N. I., ? H. ? . the Methodical Guidelines for Studying Antidepressant Activity of Pharmaceuticals,//Guidebook for Experimental (Preclinical) Studies of New Pharmaceuticals of the RF Ministry of Public Health.—ZAO IIA “Remedium”.—2000.—p. 121-125). The studies have been conducted on white outbred male rats having the weight of 230-250 grams. The animals have been put into a water reservoir having 40 cm in diameter and the depth of 60 cm, for the rats cannot either run out of the reservoir or find a support in it. The water temperature has been maintained at the level of 25° C., the experiments have been conducted within the period from 12 A.M. to 4 P.M. After coming into water the animals begin displaying energetic motion activity aimed at finding a way out of the aversive (troublesome) situation, but then they stop their attempts and take a typical position in the water, while being fully immovable or making insignificant motions necessary for keeping their heads over the water surface. The depressive condition intensity rate in this test is the duration of immobility. The immobility condition has been assessed visually, determining its duration within 10 minutes of the observations. Substances having antidepressant activity alleviate this condition by reducing the immobility time.
# The studies have been conducted using animals divided into groups. The animals from the experimental groups have received single doses of phenotropyl in the amounts of 25, 50 and 100 mg/kg or the standard amitriptyline medication in the amount of 10 mg/kg (ampoule solution made by Spofa, the Czech Republic) in the volume corresponding to the dose. The animals from the control group have received distilled water in the same dosage. All the substances have been given intragastrically 40 minutes before the an experiment.
# white outbred male rats [2] = experiment: involuntary swimming in a reservoir with freely moving wheels according to Nomura; format: in vivo
# Description: The method of involuntary swimming in a reservoir with freely moving wheels (Nomura S., Shimizu J., Kinjo M. et al. A new behavioral test for antidepressant drugs//Eur. J. Pharmacol.—1982.—v. 83.—N 34.—p. 171-175) is widely used for assessing the action of antidepressant agents. The installation is a reservoir having dimensions of 64×30×42 cm and divided into four equal sections where wheels are located. The reservoir is filled with water at the temperature of 25° C., coming to the medium line of the wheels. The studies have been conducted with white outbred male rats having the weight from 230 to 250 grams. The rats have been put into each section in the position where their heads are opposite to the wheels, and then the wheel speed has been recorded for 10 minutes with the use of electromechanical counters. The number of wheel revolutions made by the rat for 10 minutes is recorded.
# This study has been conducted with animals from different groups. The rats from the experimental groups have received single doses of phenotropyl in the amounts of 25, 50 and 100 mg/kg or the standard amitriptyline medication in the amount of 10 mg/kg (ampoule solution made by Spofa, the Czech Republic) in the volume corresponding to the dosage. The animals from the control group have received distilled water in the same dosage. All the substances have been given intragastrically 40 minutes before the an experiment.
# [3] = test system: patients having depressive illnesses; experiment: clinical study, Hamilton rating scale for depressive illness; format: in vivo, human; conditions: 75 mg daily
# Description: The Hamilton rating scale for primary depressive illness (Hamilton M. Development of a rating scale for primary depressive illness//Br J Soc Clin Psychol. 1967 December;6(4):278-96) is one of the most widely used scales for assessing depression in the clinical practice.
# The material for clinical studies has comprised two homogenous groups of patients having depressive illnesses (40 persons) aged 20-42, out of which 20 patients have taken amitriptyline in the daily dose of 75 mg (25 mg three times a day), and 20 patients have taken phenotropyl in the daily dose of 100 mg as a single dose in the morning time. For a comparative study of the medications antidepressant activity the patients have been enlisted for the study according to the following criteria: the informed consent is available, a light or moderate depressive episode (F32.0 ? F32.1 according to MCB-10) is present, the total score under the Hamilton rating scale is not lower than 18, no contraindications to taking amitriptyline and phenotropyl. The patients have been relatively uniformly assigned to the said groups according to meaningful factors, such as sex and age, time for which the condition exists and syndrome characteristics. The condition existence time varied from 1 to 2 years. The therapy efficiency has been assessed on the basis of a degree of reduction of the total score under the Hamilton scale, namely: full effect—reduction by more than 50%; partial reduction—from 25 to 50%; no effect—reduction by less than 25%. The condition of the patients has been assessed during the background studies and at each 7th day of the therapy for the whole 6 weeks of the therapy. In total, seven examinations have been carried out. The comparative data on the general efficiency pf the medications, as given in Table 5, evidence a rather quick reduction of the depressive illness psychopathological symptoms in the process of administering phenotropyl and amitriptyline. However, the antidepressant effect of phenotropyl has been more pronounced on the 7th and 14th days of the therapy. The full reduction has been attained in 25% and 40% of the patients, respectively. […] From the 28th day of the therapy the number of the patients experiencing the maximum effect has not been changed either on the 35th or the 42nd days of the therapy. Out of 20% of the patients experiencing a partial reduction of the depressive symptoms, 15% have been patients with the reduction from 25% to 50%, and 5%—patients with the reduction by less than 25%.
# white outbred male mice = experiment: haloperidol catalepsy method; format: in vivo; conditions: haloperidol 0.5 mg/kg intraperitoneally alone
# Description: As one of the indicators for antidepressant antagonism in relation to depriming effects of neuroleptics, neuroleptic-induced catalepsy is used. The maintenance of catalepsy in animals is assessed by their ability to maintain set or unusual poses for a definite time (Morpurgo C. Effects of antiparkinson drugs on phenothiazine induced catatonia reaction//Arch. Int Pharmacodyn., 1962, vol. 137 No 1-2, p. 84-94). Reduction or prevention of catalepsy is one of the factors showing antidepressant activity in studied substances.
# The studies have been conducted with white outbred male mice having the weight from 18 to 24 grams. Haloperidol is introduced intraperitoneally in a single dose of 0.5 mg/kg. Phenotropyl has been introduced intraperitoneally in doses of 50, 100 and 200 mg/kg in 15 minutes after the introduction of haloperidol. The catalepsy intensity has been assessed by time (in seconds) of keeping the animals in an uncomfortable pose where their front legs have been put onto a bar having the height of 4 cm, in 60, 120 and 180 minutes after introducing the said medications. It is shown in Table 4 that phenotropyl clearly antagonizes haloperidol-induced catalepsy.
# white outbred male rats [4] = experiment: reserpine depression method according to Bernardi; format: in vivo; conditions: reserpine 2.5 mg/kg intraperitoneally alone
# Source text: The method of reserpine depression according to Bernardi (Bernardi D., Paglialunga S., Jori A. Peripheral and central components in the hyperthermic effect of desipramine in rezerpinized rats//J. Pharm. Pharmacol., 1968, vol. 20, p. 204-209) is one of the basic models for assessing antidepressants in studies of new pharmaceuticals. The studies have been conducted with white outbred male rats having the weight from 200 to 240 grams. Reserpine has been introduced intraperitoneally, as a single dose of 2.5 mg/kg 2 hours before the introduction of phenotropyl (intraperitoneally, single doses of 25, 50, 100 and 200 mg/kg) and 3 hours before starting the study. The animals from the control group have received intraperitoneally distilled water only in the same volumes as the animals from the experimental groups. The antidepressant activity of phenotropyl has been assessed by its effect on sedation (suppression of the orientation and motion activity), intensity of ptosis and diarrhea, which have been caused by reserpine in the rats.
# The orientation and motion activity of the animals has been studied for three minutes in a special activity meter (Varimex). The intensity of ptosis and diarrhea has been assessed on the standard 4-point scale (Mashkovsky M. D., Andreeva N. I., Polezhaeva A. I. Pharmacology of Antidepressants. Moscow, Medicine Publishers, 1983, p. 194-199).
compound,measurement,setting,value
"CN(C)CCC=C1c2ccccc2CCc2ccccc21 [Amitriptyline, 5-(3-dimethylaminopropylidene)-10,11-dihydrodibenzocycloheptine hydrochloride, reference compound]",effect on immobility time,white outbred male rats [1]; 10 mg/kg intragastrically,reliably reduced the immobility time
same,Time of immobility,"white outbred male rats [1]; single dose 10 mg/kg intragastrically 40 minutes before, 10 minutes observation",166.1 ± 46.5 s
same,effect on number of wheel revolutions,white outbred male rats [2]; 10 mg/kg intragastrically,reliably increasing the number of wheel revolutions
same,Number of wheel revolutions for 10 minutes,white outbred male rats [2]; single dose 10 mg/kg intragastrically 40 minutes before,115.1 ± 24.6
same,patients (%) with reduction of total Hamilton score 25-49,[3]; 7th therapy day,20%
same,patients (%) with reduction of total Hamilton score <25,[3]; 7th therapy day,80%
same,patients (%) with reduction of total Hamilton score ≧50,[3]; 7th therapy day,0%
same,patients (n) with reduction of total Hamilton score 25-49,[3]; 7th therapy day,4
same,patients (n) with reduction of total Hamilton score <25,[3]; 7th therapy day,16
same,patients (n) with reduction of total Hamilton score ≧50,[3]; 7th therapy day,0
same,patients (%) with reduction of total Hamilton score 25-49,[3]; 14th therapy day,30%
same,patients (%) with reduction of total Hamilton score <25,[3]; 14th therapy day,50%
same,patients (%) with reduction of total Hamilton score ≧50,[3]; 14th therapy day,20%
same,patients (n) with reduction of total Hamilton score 25-49,[3]; 14th therapy day,6
same,patients (n) with reduction of total Hamilton score <25,[3]; 14th therapy day,10
same,patients (n) with reduction of total Hamilton score ≧50,[3]; 14th therapy day,4
same,patients (%) with reduction of total Hamilton score 25-49,[3]; 21st therapy day,30%
same,patients (%) with reduction of total Hamilton score <25,[3]; 21st therapy day,30%
same,patients (%) with reduction of total Hamilton score ≧50,[3]; 21st therapy day,40%
same,patients (n) with reduction of total Hamilton score 25-49,[3]; 21st therapy day,6
same,patients (n) with reduction of total Hamilton score <25,[3]; 21st therapy day,6
same,patients (n) with reduction of total Hamilton score ≧50,[3]; 21st therapy day,8
same,patients (%) with reduction of total Hamilton score 25-49,[3]; 28th therapy day,10%
same,patients (%) with reduction of total Hamilton score <25,[3]; 28th therapy day,20%
same,patients (%) with reduction of total Hamilton score ≧50,[3]; 28th therapy day,70%
same,patients (n) with reduction of total Hamilton score 25-49,[3]; 28th therapy day,2
same,patients (n) with reduction of total Hamilton score <25,[3]; 28th therapy day,4
same,patients (n) with reduction of total Hamilton score ≧50,[3]; 28th therapy day,14
same,patients (%) with reduction of total Hamilton score 25-49,[3]; 35th therapy day,5%
same,patients (%) with reduction of total Hamilton score <25,[3]; 35th therapy day,10%
same,patients (%) with reduction of total Hamilton score ≧50,[3]; 35th therapy day,85%
same,patients (n) with reduction of total Hamilton score 25-49,[3]; 35th therapy day,1
same,patients (n) with reduction of total Hamilton score <25,[3]; 35th therapy day,2
same,patients (n) with reduction of total Hamilton score ≧50,[3]; 35th therapy day,17
same,patients (%) with reduction of total Hamilton score 25-49,[3]; 42nd therapy day,5%
same,patients (%) with reduction of total Hamilton score <25,[3]; 42nd therapy day,10%
same,patients (%) with reduction of total Hamilton score ≧50,[3]; 42nd therapy day,85%
same,patients (n) with reduction of total Hamilton score 25-49,[3]; 42nd therapy day,1
same,patients (n) with reduction of total Hamilton score <25,[3]; 42nd therapy day,2
same,patients (n) with reduction of total Hamilton score ≧50,[3]; 42nd therapy day,17
"O=C(CCCN1CCC(O)(c2ccc(Cl)cc2)CC1)c1ccc(F)cc1 [Haloperidol, reference compound]",Catalepsy,white outbred male mice; 60 minutes,1.3 ± 0.8 s
same,Catalepsy,white outbred male mice; 120 minutes,27.5 ± 8.5 s
same,Catalepsy,white outbred male mice; 180 minutes,63.4 ± 2.8 s
"COC(=O)[C@H]1[C@H]2C[C@@H]3c4[nH]c5cc(OC)ccc5c4CCN3C[C@H]2C[C@@H](OC(=O)c2cc(OC)c(OC)c(OC)c2)[C@@H]1OC [Reserpine, reference compound]",Diarrhea,white outbred male rats [4]; 4-point scale,2.4 ± 0.1 points
same,Ptosis,"white outbred male rats [4]; 3 hours before study, 4-point scale",3.6 ± 0.2 points
same,Number of pulses in activity meter,"white outbred male rats [4]; three minutes, Varimex",11.8 ± 2.2
